Measurements from patent US10758534B2 (Vertex Pharmaceuticals Incorporated, priority 2014, dated 2020).

Molecular target: T1, F508del (Homo sapiens, UniProt P13569, DEL508-508)
T1 construct: expressed in transfected cells
Assay: Protocol 1: membrane potential optical assay (FLIPR III, voltage sensing dye), identification of potentiator compounds
Type: cell-based
Settings: Table 3, compounds of Table 1
How it was run: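 Read-out: change in voltage-sensing dye fluorescence (FLIPR III) as a measure of F508del conductance. Temperature-corrected (27° C, 24 hrs) NIH 3T3 cells expressing F508del are pretreated with potentiators, dye-loaded, then stimulated with forskolin under a chloride ion gradient using chloride-free gluconate bath.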

T1 sequence (P13569 with tags, fused parts or gaps DEL508-508): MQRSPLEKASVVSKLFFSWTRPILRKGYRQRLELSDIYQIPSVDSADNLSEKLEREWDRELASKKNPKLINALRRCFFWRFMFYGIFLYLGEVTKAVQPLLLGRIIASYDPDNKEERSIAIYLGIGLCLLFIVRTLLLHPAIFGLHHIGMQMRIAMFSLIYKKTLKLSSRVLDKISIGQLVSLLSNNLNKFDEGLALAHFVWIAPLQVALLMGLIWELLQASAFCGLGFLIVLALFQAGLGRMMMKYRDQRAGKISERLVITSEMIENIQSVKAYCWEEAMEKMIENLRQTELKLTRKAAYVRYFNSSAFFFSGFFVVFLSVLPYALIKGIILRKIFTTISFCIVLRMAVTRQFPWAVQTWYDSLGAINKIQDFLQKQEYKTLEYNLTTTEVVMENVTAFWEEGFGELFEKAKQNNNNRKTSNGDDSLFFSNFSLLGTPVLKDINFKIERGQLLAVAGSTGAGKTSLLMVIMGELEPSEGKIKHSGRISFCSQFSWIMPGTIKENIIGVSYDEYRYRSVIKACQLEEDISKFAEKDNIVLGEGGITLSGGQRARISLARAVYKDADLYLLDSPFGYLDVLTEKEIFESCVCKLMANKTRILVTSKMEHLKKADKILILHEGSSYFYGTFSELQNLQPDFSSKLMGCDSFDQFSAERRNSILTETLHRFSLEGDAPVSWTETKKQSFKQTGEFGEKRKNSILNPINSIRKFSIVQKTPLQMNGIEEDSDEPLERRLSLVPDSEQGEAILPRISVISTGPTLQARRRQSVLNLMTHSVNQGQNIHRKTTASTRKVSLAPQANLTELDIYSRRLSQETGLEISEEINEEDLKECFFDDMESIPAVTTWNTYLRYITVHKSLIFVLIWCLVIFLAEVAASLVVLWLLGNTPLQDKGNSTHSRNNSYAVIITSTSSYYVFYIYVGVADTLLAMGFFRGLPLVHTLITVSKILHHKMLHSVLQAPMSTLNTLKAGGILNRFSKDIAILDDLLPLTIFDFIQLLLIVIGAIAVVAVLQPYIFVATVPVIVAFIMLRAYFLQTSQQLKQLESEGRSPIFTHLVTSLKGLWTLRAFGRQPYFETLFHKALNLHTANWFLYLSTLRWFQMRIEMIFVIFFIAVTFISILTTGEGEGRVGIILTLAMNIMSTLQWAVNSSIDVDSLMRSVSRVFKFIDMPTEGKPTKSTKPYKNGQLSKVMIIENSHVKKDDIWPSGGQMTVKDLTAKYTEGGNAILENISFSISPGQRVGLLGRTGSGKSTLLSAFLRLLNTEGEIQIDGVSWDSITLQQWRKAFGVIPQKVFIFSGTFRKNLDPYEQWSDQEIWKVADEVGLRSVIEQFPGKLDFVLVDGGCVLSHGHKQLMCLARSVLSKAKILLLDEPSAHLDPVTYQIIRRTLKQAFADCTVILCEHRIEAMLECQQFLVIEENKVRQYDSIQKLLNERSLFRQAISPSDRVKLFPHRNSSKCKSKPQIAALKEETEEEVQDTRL

SMILES | EC30
CC(C)(C)COc1cccc(-c2ccc(C(=O)NS(=O)(=O)c3cccc(N)n3)c(N3CCCC3(C)C)n2)n1 [Compound 1328, N-[(6-amino-2-pyridyl)sulfonyl]-6-[6-(2,2-dimethylpropoxy)-2-pyridyl]-2-(2,2-dimethylpyrrolidin-1-yl)pyridine-3-carboxamide] | +++ (“+++” means <3 uM)
Cc1cc(C)c(Oc2nc(C3CCC(F)(F)CC3)ccc2C(=O)NS(=O)(=O)c2ccc[nH]c2=O)c(C)c1 [Compound 1329, 6-(4,4-difluorocyclohexyl)-N-[(2-oxo-1H-pyridin-3-yl)sulfonyl]-2-(2,4,6-trimethylphenoxy)pyridine-3-carboxamide] | ++ (“++” means between 3 uM and 10 uM)
Cc1cc(C)c(Oc2nc(C3=CCCC3)ccc2C(=O)NS(=O)(=O)c2cccc(N)n2)c(C)c1 [Compound 1330, N-[(6-amino-2-pyridyl)sulfonyl]-6-(cyclopenten-1-yl)-2-(2,4,6-trimethylphenoxy)pyridine-3-carboxamide] | +++ (“+++” means <3 uM)
Cc1ccc(-c2nc(C(C)(C)C)ccc2C(=O)NS(=O)(=O)c2cccc(N)c2)c(F)c1 [Compound 1331, N-(3-aminophenyl)sulfonyl-6-tert-butyl-2-(2-fluoro-4-methyl-phenyl)pyridine-3-carboxamide] | + (“+” means greater than 10 uM)
COc1ncc(-c2ccc(C(=O)NS(=O)(=O)c3cccc(N)n3)c(Oc3c(C)cc(C)cc3C)n2)cc1Cl [Compound 1332, N-[(6-amino-2-pyridyl)sulfonyl]-6-(5-chloro-6-methoxy-3-pyridyl)-2-(2,4,6-trimethylphenoxy)pyridine-3-carboxamide] | +++ (“+++” means <3 uM)
CC(C)COc1cc(F)cc(-c2ccc(C(=O)NS(=O)(=O)c3cccc(N)n3)c(N3CCCC34CC4)n2)c1 [Compound 1333, N-[(6-amino-2-pyridyl)sulfonyl]-2-(7-azaspiro[2.4]heptan-7-yl)-6-(3-fluoro-5-isobutoxy-phenyl)pyridine-3-carboxamide] | +++ (“+++” means <3 uM)
CC1CN(c2nc(-c3ccccc3)ccc2C(=O)NS(=O)(=O)c2cccc(N)n2)C(C)(C)C1 (stereo not drawn) [Compound 1334, N-[(6-amino-2-pyridyl)sulfonyl]-6-phenyl-2-(2,2,4-trimethylpyrrolidin-1-yl)pyridine-3-carboxamide] | +++ (“+++” means <3 uM)
CC(C)COc1ccc(-c2ccc(C(=O)NS(=O)(=O)c3ccn[nH]3)c(N3[C@H](C)CC[C@@H]3C)n2)cc1 [Compound 1335, 2-[(2S,5R)-2,5-dimethylpyrrolidin-1-yl]-6-(4-isobutoxyphenyl)-N-(1H-pyrazol-5-ylsulfonyl)pyridine-3-carboxamide] | +++ (“+++” means <3 uM)
Cc1cc(C)c(Oc2nc(-c3cnn(CCC(C)C)c3)ccc2C(=O)NS(=O)(=O)c2cccc(N)n2)c(C)c1 [Compound 1336, N-[(6-amino-2-pyridyl)sulfonyl]-6-(1-isopentylpyrazol-4-yl)-2-(2,4,6-trimethylphenoxy)pyridine-3-carboxamide] | +++ (“+++” means <3 uM)
CCOc1ccc(-c2ccc(C(=O)NS(=O)(=O)c3cccc(N)n3)c(Oc3c(C)cc(C)cc3C)n2)cc1 [Compound 1337, N-[(6-amino-2-pyridyl)sulfonyl]-6-(4-ethoxyphenyl)-2-(2,4,6-trimethylphenoxy)pyridine-3-carboxamide] | +++ (“+++” means <3 uM)
CC(C)COc1cc(F)cc(-c2ccc(C(=O)NS(=O)(=O)c3cccc(CO)n3)c(N3CCC(C)CC3)n2)c1 [Compound 1340, 6-(3-fluoro-5-isobutoxy-phenyl)-N-[[6-(hydroxymethyl)-2-pyridyl]sulfonyl]-2-(4-methyl-1-piperidyl)pyridine-3-carboxamide] | +++ (“+++” means <3 uM)
CC(C)COc1cc(F)cc(-c2ccc(C(=O)NS(=O)(=O)c3ccn[nH]3)c(N3C(C)CC(c4ccccc4)C3C)n2)c1 (stereo not drawn) [Compound 1348, 2-(2,5-dimethyl-3-phenyl-pyrrolidin-1-yl)-6-(3-fluoro-5-isobutoxy-phenyl)-N-(1H-pyrazol-5-ylsulfonyl)pyridine-3-carboxamide] | +++ (“+++” means <3 uM)
CC(C)COc1cc(F)cc(-c2ccc(C(=O)NS(=O)(=O)c3ccccc3)c(N3C[C@@H](C)CC3(C)C)n2)c1 [Compound 1356, N-(benzenesulfonyl)-6-(3-fluoro-5-isobutoxy-phenyl)-2-[(4S)-2,2,4-trimethylpyrrolidin-1-yl]pyridine-3-carboxamide] | +++ (“+++” means <3 uM)

Now from value to compound:

EC30 | SMILES
++ (“++” means between 3 uM and 10 uM) | Cc1cc(C)c(CN2Cc3c(O)cccc3C2(C)C(=O)NS(=O)(=O)c2cccc(N)n2)c(C)c1 (stereo not drawn) [Compound 1338, N-[(6-amino-2-pyridyl)sulfonyl]-4-hydroxy-1-methyl-2-[(2,4,6-trimethylphenyl)methyl]isoindoline-1-carboxamide]
+++ (“+++” means <3 uM) | CC(C)Oc1ccc(-c2ccc(C(=O)NS(=O)(=O)c3cccc(N)n3)c(N3CCCC(c4cccc(Cl)c4)C3)n2)cn1 (stereo not drawn) [Compound 1339, N-[(6-amino-2-pyridyl)sulfonyl]-2-[3-(3-chlorophenyl)-1-piperidyl]-6-(6-isopropoxy-3-pyridyl)pyridine-3-carboxamide]
+++ (“+++” means <3 uM) | CCC1(C)CCCN(c2nc(-c3ccc(OC(C)C)nc3)ccc2C(=O)NS(=O)(=O)c2cccc(N)n2)C1 (stereo not drawn) [Compound 1341, N-[(6-amino-2-pyridyl)sulfonyl]-2-(3-ethyl-3-methyl-1-piperidyl)-6-(6-isopropoxy-3-pyridyl)pyridine-3-carboxamide]
+++ (“+++” means <3 uM) | COc1ncccc1S(=O)(=O)NC(=O)C1CCc2ccccc2CN1Cc1c(C)cc(C)cc1C (stereo not drawn) [Compound 1342, N-[(2-methoxy-3-pyridyl)sulfonyl]-2-[(2,4,6-trimethylphenyl)methyl]-1,3,4,5-tetrahydro-2-benzazepine-3-carboxamide]
+++ (“+++” means <3 uM) | CC(C)c1ccc(-c2ccc(C(=O)NS(=O)(=O)c3cccc(N)n3)c(N3[C@H](C)CC[C@@H]3C)n2)cc1 [Compound 1343, N-[(6-amino-2-pyridyl)sulfonyl]-2-[(2S,5R)-2,5-dimethylpyrrolidin-1-yl]-6-(4-isopropylphenyl)pyridine-3-carboxamide]
++ (“++” means between 3 uM and 10 uM) | Cc1cc(C)c(Oc2nc(-c3ccc(O)cc3)ccc2C(=O)NS(=O)(=O)c2cccc(N)n2)c(C)c1 [Compound 1344, N-[(6-amino-2-pyridyl)sulfo]-6-(4-hydroxyphenyl)-2-(2,4,6-trimethylphenoxy)pyridine-3-carboxamide]
+++ (“+++” means <3 uM) | CCN(CC)c1cccc(-c2ccc(C(=O)NS(=O)(=O)c3cccc(N)n3)c(N3CC(C)CC3(C)C)n2)n1 (stereo not drawn) [Compound 1345, N-[(6-amino-2-pyridyl)sulfonyl]-6-[6-(diethylamino)-2-pyridyl]-2-(2,2,4-trimethylpyrrolidin-1-yl)pyridine-3-carboxamide]
+++ (“+++” means <3 uM) | CCOc1cccc2c1CN(Cc1c(C)cc(C)cc1C)C2(C)C(=O)NS(=O)(=O)c1cccc(N)n1 (stereo not drawn) [Compound 1346, N-[(6-amino-2-pyridyl)sulfonyl]-4-ethoxy-1-methyl-2-[(2,4,6-trimethylphenyl)methyl]isoindoline-1-carboxamide]
+++ (“+++” means <3 uM) | COc1ncccc1S(=O)(=O)NC(=O)c1cc2c(nc1Oc1ccc(C)cc1C)C(C)(C)CCC2 [Compound 1347, 2-(2,4-dimethylphenoxy)-N-[(2-methoxy-3-pyridyl)sulfonyl]-8,8-dimethyl-6,7-dihydro-5H-quinoline-3-carboxamide]
+++ (“+++” means <3 uM) | CC(C)(C)c1ccc(C(=O)NS(=O)(=O)c2cccc(N)n2)c(OC2CC3CCC2C3)n1 (stereo not drawn) [Compound 1349, N-[(6-amino-2-pyridyl)sulfonyl]-6-tert-butyl-2-norbornan-2-yloxy-pyridine-3-carboxamide]
+ (“+” means greater than 10 uM) | Cc1ccc(F)c(-c2nc(C(C)(C)C)ccc2C(=O)NS(=O)(=O)c2cccc(N)c2)c1 [Compound 1350, N-(3-aminophenyl)sulfonyl-6-tert-butyl-2-(2-fluoro-5-methyl-phenyl)pyridine-3-carboxamide]
++ (“++” means between 3 uM and 10 uM) | Cc1ccc(-c2nc(-c3cc(F)cc(OC(C)C)c3)ccc2C(=O)NS(=O)(=O)c2nccnc2N)cc1 [Compound 1351, N-(3-aminopyrazin-2-yl)sulfonyl-6-(3-fluoro-5-isopropoxy-phenyl)-2-(p-tolyl)pyridine-3-carboxamide]
+++ (“+++” means <3 uM) | CC1CN(c2nc(-c3ccc(OC(C)C)nc3)ccc2C(=O)NS(=O)(=O)c2ccn[nH]2)C(C)(C)C1 (stereo not drawn) [Compound 1352, 6-(6-isopropoxy-3-pyridyl)-N-(1H-pyrazol-5-ylsulfonyl)-2-(2,2,4-trimethylpyrrolidin-1-yl)pyridine-3-carboxamide]
+ (“+” means greater than 10 uM) | Cc1cc(C)c(Oc2nc(-c3ccccn3)ccc2C(=O)NS(=O)(=O)c2cc[nH]n2)c(C)c1 [Compound 1353, N-(1H-pyrazol-3-ylsulfonyl)-6-(2-pyridyl)-2-(2,4,6-trimethylphenoxy)pyridine-3-carboxamide]
+++ (“+++” means <3 uM) | CC(C)Oc1ccc(-c2ccc(C(=O)NS(=O)(=O)c3cccc(N)n3)c(N3CCC[C@H]3C)n2)cn1 [Compound 1354, N-[(6-amino-2-pyridyl)sulfonyl]-6-(6-isopropoxy-3-pyridyl)-2-[(2R)-2-methylpyrrolidin-1-yl]pyridine-3-carboxamide]
++ (“++” means between 3 uM and 10 uM) | Cc1ccc(-c2nc(C(C)(C)C)ccc2C(=O)NS(=O)(=O)c2ccc(C)cn2)cc1 [Compound 1355, 6-tert-butyl-N-[(5-methyl-2-pyridyl)sulfonyl]-2-(p-tolyl)pyridine-3-carboxamide]
+++ (“+++” means <3 uM) | Cc1cc(C)c(Oc2nc(C3CCCCC3)ccc2C(=O)NS(=O)(=O)c2ccc[nH]c2=O)c(C)c1 [Compound 1357, 6-cyclohexyl-N-[(2-oxo-1H-pyridin-3-yl)sulfonyl]-2-(2,4,6-trimethylphenoxy)pyridine-3-carboxamide]
